Source: patent EP0131252B1, “Thymosin alpha 11” (F. HOFFMANN-LA ROCHE AG, priority 1983, dated 1989)

Legend:
[1] = system: T cell differentiation and function; experiment: In vivo assay systems designed to measure T cell differentiation and function
Excerpt: The present invention relates to the isolation and first complete structural determination of a new polypeptide (thymosin α11 ) isolated from thymosin fraction 5, to pharmaceutically acceptable acid and base addition salts thereof and to pharmaceutical compositions containing this compound or its salts.

[2] = system: Candida albicans; experiment: Protection of mice against infection with Candida albicans (daily i.p. treatment, intravenous challenge); type: in vivo
Excerpt: The biological activity of thymosin a1 can be determined by utilizing in vivo assays known in the art. Thus, for example, inbred strains of mice are known to vary in their susceptibility to infection with C. albicans. Thus, mice of such strains as C3 H/HeJ or CBA/CaJ are highly susceptible to infection, whereas mice of such strains as C57 BI/10SNJ or C57BI/KsJ were highly resistant to challenge. Since resistance to infection with C. albicans is associated with cell-mediated processes, and therefore with T-lymphocytes, thymic hormones should have an effect on the host response.
Thymosin fraction 5, thymosin a1 or α11 was injected daily i.p. in graded doses into three different groups of mice, beginning two days before intravenous challenge with 4x10^4 cells of Candida albicans.
Mice were treated daily with the indicated doses of thymosin fraction 5, thymosin a1 or thymosin α11 and challenged with 4x 10^4 cells of C. a/bicans two days after the start of treatment
^* Three mice from each set were sacrificed on days 7,14 and 21 after infection and the values represent
the average number of organisms in the left kidneys of the nine mice in each set.

With “AcSer-Asp-Ala-Ala-Val-Asp-Thr-Ser-Ser-Glu-ile-Thr-Thr-Lys-Asp-Leu-Lys-Glu-Lys-Lys-Glu-Val-Val-Glu-Glu-Ala-Glu-Asn-Gly-Arg-Glu-Ala-Pro-Ala-AsnOH [thymosin α11]” the “biological activity compared with thymosin a1” value [1] was “same qualitative and quantitative biological activity as thymosin a1”, the “potency relative to fraction 5 in ability to induce resistance to infection with C. albicans” value ([2]; compared on optimum daily doses) was “about 30 times” and the “daily doses at which most active” value ([2]; i.p., daily, resistance to infection with C. albicans) was 160-320 ng per mouse. For the same substance, the “protection in comparison with control mice” value ([2]; injected daily i.p. in graded doses, beginning two days before intravenous challenge with 4x10^4 cells of Candida albicans) was “provided protection” and the “potency of thymosin a1 and thymosin α11 relative to each other” value ([2]; resistance to infection with C. albicans) was “approximately equal in potency”.
